According to PubChem BioAssay AID1259407 (Chemical Carcinogenesis Research Information System (CCRIS), 2018):
Active and inactive are the calls of the source. The rule behind the calls is not given here.

Test system: CCRIS mutagenicity, Ames/micronucleus/aberration tests
Test: CCRIS mutagenicity studies
[1] = Test System: AMES SALMONELLA TYPHIMURIUM, Strain/Indicator: TA98, Metabolic Activation: RAT, LIVER, S-9, AROCLOR 1254, Method: STANDARD PLATE
[2] = Test System: AMES SALMONELLA TYPHIMURIUM, Strain/Indicator: TA100, Metabolic Activation: RAT, LIVER, S-9, AROCLOR 1254, Method: STANDARD PLATE
[3] = Test System: AMES SALMONELLA TYPHIMURIUM, Strain/Indicator: TA1538, Metabolic Activation: RAT, LIVER, S-9, AROCLOR 1254, Method: STANDARD PLATE
[4] = Test System: AMES SALMONELLA TYPHIMURIUM, Strain/Indicator: TA98, Metabolic Activation: NONE, Method: PREINCUBATION
[5] = Test System: AMES SALMONELLA TYPHIMURIUM, Strain/Indicator: TA98, Metabolic Activation: NONE, Method: STANDARD PLATE
[6] = Test System: AMES SALMONELLA TYPHIMURIUM, Strain/Indicator: TA100, Metabolic Activation: NONE, Method: PREINCUBATION
[7] = Test System: AMES SALMONELLA TYPHIMURIUM, Strain/Indicator: TA100, Metabolic Activation: NONE, Method: STANDARD PLATE
[8] = Test System: AMES SALMONELLA TYPHIMURIUM, Strain/Indicator: TA1535, Metabolic Activation: NONE, Method: STANDARD PLATE
[9] = Test System: AMES SALMONELLA TYPHIMURIUM, Strain/Indicator: TA1537, Metabolic Activation: NONE, Method: STANDARD PLATE
[10] = Test System: AMES SALMONELLA TYPHIMURIUM, Strain/Indicator: TA1537, Metabolic Activation: RAT, LIVER, S-9, AROCLOR 1254, Method: STANDARD PLATE

Measured: mutagenic call

Cc1cc2c(c3ccc4ccccc4c13)CCC2=O
inactive: Test System: AMES SALMONELLA TYPHIMURIUM, Strain/Indicator: TA100, Metabolic Activation: RAT, LIVER, MICROSOMES, 15,16-DIHYDRO-11-METHYL-17(H)-CYCLOPENTA[A] PHENANTHREN-17-ONE, Method: STANDARD PLATE inactive; negative | Test System: AMES SALMONELLA TYPHIMURIUM, Strain/Indicator: TA100, Metabolic Activation: RAT, LIVER, MICROSOMES, CLOFIBRATE, Method: STANDARD PLATE inactive; negative | Test System: AMES SALMONELLA TYPHIMURIUM, Strain/Indicator: TA100, Metabolic Activation: RAT, LIVER, MICROSOMES, DEXAMETHASONE, Method: STANDARD PLATE inactive; negative | Test System: AMES SALMONELLA TYPHIMURIUM, Strain/Indicator: TA100, Metabolic Activation: RAT, LIVER, MICROSOMES, ISONIAZID, Method: STANDARD PLATE inactive; negative | Test System: AMES SALMONELLA TYPHIMURIUM, Strain/Indicator: TA100, Metabolic Activation: RAT, LIVER, MICROSOMES, PHENOBARBITONE, Method: STANDARD PLATE inactive; negative | Test System: AMES SALMONELLA TYPHIMURIUM, Strain/Indicator: TA100, Metabolic Activation: RAT, LIVER, MICROSOMES, Method: STANDARD PLATE inactive; negative
active: [1] active; positive | Test System: AMES SALMONELLA TYPHIMURIUM, Strain/Indicator: TA100, Metabolic Activation: RAT, LIVER, MICROSOMES, BENZO[A]PYRENE, Method: STANDARD PLATE active; positive | [2] active; positive | [3] active; positive

COC(=O)c1oc([N+](=O)[O-])c(-c2ccccc2)c1-c1ccccc1
active: Test System: AMES SALMONELLA TYPHIMURIUM, Strain/Indicator: TA98(1,8-DNP6), Metabolic Activation: NONE, Method: STANDARD PLATE active; positive | [4] active; positive | [5] active; positive | Test System: AMES SALMONELLA TYPHIMURIUM, Strain/Indicator: TA100(NR), Metabolic Activation: NONE, Method: STANDARD PLATE active; positive | [6] active; positive | [7] active; positive | Test System: AMES SALMONELLA TYPHIMURIUM, Strain/Indicator: TA104, Metabolic Activation: NONE, Method: STANDARD PLATE active; positive
inactive: Test System: AMES SALMONELLA TYPHIMURIUM, Strain/Indicator: TA98(NR), Metabolic Activation: NONE, Method: STANDARD PLATE inactive; negative

C=C(Cl)C#N
inactive: [6] inactive; negative | Test System: AMES SALMONELLA TYPHIMURIUM, Strain/Indicator: TA100, Metabolic Activation: RAT, LIVER, S-9, AROCLOR 1254, Method: PREINCUBATION inactive; negative

CCOP(=S)(OCC)SCSCC
inactive: Test System: AMES SALMONELLA TYPHIMURIUM, Strain/Indicator: TA97A, Metabolic Activation: NONE, Method: STANDARD PLATE inactive; negative | Test System: AMES SALMONELLA TYPHIMURIUM, Strain/Indicator: TA97A, Metabolic Activation: PLANT, HOMOGENATE, S-14, Method: STANDARD PLATE inactive; negative | Test System: AMES SALMONELLA TYPHIMURIUM, Strain/Indicator: TA97A, Metabolic Activation: S-9, Method: STANDARD PLATE inactive; negative | [4] inactive; negative | [5] inactive; negative | Test System: AMES SALMONELLA TYPHIMURIUM, Strain/Indicator: TA98, Metabolic Activation: PLANT, HOMOGENATE, S-14, Method: STANDARD PLATE inactive; negative | Test System: AMES SALMONELLA TYPHIMURIUM, Strain/Indicator: TA98, Metabolic Activation: S-9, Method: STANDARD PLATE inactive; negative | [6] inactive; negative | [7] inactive; negative | Test System: AMES SALMONELLA TYPHIMURIUM, Strain/Indicator: TA100, Metabolic Activation: PLANT, HOMOGENATE, S-14, Method: STANDARD PLATE inactive; negative | Test System: AMES SALMONELLA TYPHIMURIUM, Strain/Indicator: TA100, Metabolic Activation: S-9, Method: STANDARD PLATE inactive; negative | [8] inactive; negative | Test System: AMES SALMONELLA TYPHIMURIUM, Strain/Indicator: TA1535, Metabolic Activation: PLANT, HOMOGENATE, S-14, Method: STANDARD PLATE inactive; negative | Test System: AMES SALMONELLA TYPHIMURIUM, Strain/Indicator: TA1535, Metabolic Activation: S-9, Method: STANDARD PLATE inactive; negative

O=C(O)/C=C/c1ccc([N+](=O)[O-])o1
active: [4] active; positive

CC(C)CN(N=O)/C(N)=N/[N+](=O)[O-]
active: Test System: AMES SALMONELLA TYPHIMURIUM, Strain/Indicator: TA100, Metabolic Activation: RAT, LIVER, S-9, KC500 OR PHENOBARBITAL, Method: LIQUID SUSPENSION active; positive | [8] active; positive | Test System: AMES SALMONELLA TYPHIMURIUM, Strain/Indicator: TA1535, Metabolic Activation: RAT, LIVER, S-9, KC500 OR PHENOBARBITAL, Method: LIQUID SUSPENSION active; positive

OCc1c2ccccc2cc2c1ccc1ccccc12
active: [5] active; positive | Test System: AMES SALMONELLA TYPHIMURIUM, Strain/Indicator: TA98, Metabolic Activation: RAT, LIVER, S-9, 3'-PHOSPHOADENOSINE 5'-PHOSPHOSULFATE GENERATING SYSTEM, Method: PREINCUBATION active; positive | Test System: AMES SALMONELLA TYPHIMURIUM, Strain/Indicator: TA98, Metabolic Activation: RAT, LIVER, S-9, NADPH GENERATING SYSTEM, Method: PREINCUBATION active; positive | Test System: AMES SALMONELLA TYPHIMURIUM, Strain/Indicator: TA98, Metabolic Activation: RAT, LIVER, S-105, 3'-PHOSPHOADENOSINE 5'-PHOSPHOSULFATE GENERATING SYSTEM, Method: PREINCUBATION active; positive

O=C(ON(OCc1ccccc1)C(=O)c1ccccc1)c1cccc([N+](=O)[O-])c1
active: [7] active; positive | Test System: AMES SALMONELLA TYPHIMURIUM, Strain/Indicator: TA100, Metabolic Activation: RAT, S-9, AROCLOR, Method: STANDARD PLATE active; positive

CC(CN1CC(=O)NC(=O)C1)N1CC(=O)NC(=O)C1 (stereo not drawn)
active: Test System: CHINESE HAMSTER V-79, Strain/Indicator: V-79/8-AZAGUANINE, Metabolic Activation: NONE, Method: STANDARD PLATE active; positive | Test System: MOUSE LYMPHOMA, Strain/Indicator: L5178Y (TK+/TK-), Metabolic Activation: NONE, Method: SUSPENSION/PLATE active; positive
inactive: [5] inactive; negative | [1] inactive; negative | [7] inactive; negative | [2] inactive; negative | [8] inactive; negative | Test System: AMES SALMONELLA TYPHIMURIUM, Strain/Indicator: TA1535, Metabolic Activation: RAT, LIVER, S-9, AROCLOR 1254, Method: STANDARD PLATE inactive; negative | [9] inactive; negative | [10] inactive; negative | Test System: AMES SALMONELLA TYPHIMURIUM, Strain/Indicator: TA1538, Metabolic Activation: NONE, Method: STANDARD PLATE inactive; negative | [3] inactive; negative

COc1cccc(CN2[C@@H]3c4ccccc4-c4ccccc4[C@@H]32)c1 (stereo partly drawn)
active: [7] active; positive

C[C@H](CC1=C(C=O)CO[C@@H]1O)C1=CCC(C)(C)C1
inactive: [5] inactive; negative | [7] inactive; negative | Test System: AMES SALMONELLA TYPHIMURIUM, Strain/Indicator: TA2637, Metabolic Activation: NONE, Method: STANDARD PLATE inactive; negative

C1COCCOCCOCCOCCO1
inactive: [5] inactive; negative | [1] inactive; negative | [7] inactive; negative | [2] inactive; negative | Test System: AMES SALMONELLA TYPHIMURIUM, Strain/Indicator: TA1530, Metabolic Activation: NONE, Method: STANDARD PLATE inactive; negative | Test System: AMES SALMONELLA TYPHIMURIUM, Strain/Indicator: TA1530, Metabolic Activation: RAT, LIVER, S-9, AROCLOR 1254, Method: STANDARD PLATE inactive; negative | [9] inactive; negative | [10] inactive; negative
